The values that follow come from ChEMBL document CHEMBL4808223, “Design, synthesis and biological activity of bis-sulfonyl-BODIPY probes for tumor cell imaging” (Bioorg Med Chem Lett, 2021).

Molecules are shown by their SMILES.

Data set [1] is described as follows: Drug uptake in human HeLa cells assessed as increase in fluorescence intensity at 10 uM incubated for 24 hrs by DAPI staining based confocal microscopic analysis. Format: ADME, cell-based.
The subject of a further data set is HCT-116. In words: Cytotoxicity against human HCT-116 cells by MTT assay. Format: functional, cell-based. Background: Tetrazolium dyes change colour on reduction, which living cells bring about.
The test system of data set [2] is HeLa. Nature of the data set: Cytotoxicity against human HeLa cells by MTT assay. It counts as functional, cell-based.
The next data set has as its system L02. In words: Cytotoxicity against human L02 cells by MTT assay. Format: cell-based.
Data set [3] can be described thus: Drug uptake in tumor of mouse xenografted with human HeLa cells administered intraperitoneally and measured after 30 mins by fluorescence imaging analysis. It counts as ADME, tissue-based, Neoplasm. As to conditions: in vivo, ip, 0.5 h; call rule not given here. For orientation: Xenograft models place foreign cells or tissue in a host animal.
Data set [4] has as its system HeLa. In words: Induction of apoptosis in human HeLa cells assessed as early apoptotic cells measured after 12 hrs by Annexin-V-FITC/propidium iodide staining based flow cytometry. It counts as functional.
Data set [5] has as its system HeLa. In words: Induction of apoptosis in human HeLa cells assessed as late apoptotic cells measured after 12 hrs by Annexin-V-FITC/propidium iodide staining based flow cytometry. Format: functional.
For data set [6], the system named is HeLa. In words: Induction of apoptosis in human HeLa cells assessed as necrotic cells measured after 12 hrs by Annexin-V-FITC/propidium iodide staining based flow cytometry. It counts as functional. (In flow cytometry, cells or beads pass a laser one at a time.)
Data set [7] has as its system HeLa. Nature of the data set: Induction of apoptosis in human HeLa cells assessed as viable cells measured after 12 hrs by Annexin-V-FITC/propidium iodide staining based flow cytometry. It counts as functional.

On to `CCC1=C(C)C2=C(c3ccccc3)c3ccc(NCCN)n3[B-](F)(F)[N+]2=C1C`, for which the Drug uptake result in data set [1] is listed as “Active”.
By IC50 is commonly meant the point on the concentration scale where inhibition reaches its midpoint. A high value points to a need for much substance. As for `CCC1=C(C)C2=C(c3ccccc3)c3ccc(NCCNCC(=O)c4ccc(OS(C)(=O)=O)cc4OS(C)(=O)=O)n3[B-](F)(F)[N+]2=C1C`, the 50% inhibitory concentration (IC50) turned out to be 101 µM with HCT-116, 95.5 µM in the data set with HeLa [2] and 41.7 µM with L02. In addition, the Drug uptake result in [1] is “Active”.
As to `CCC1=C(C)C2=C(c3ccccc3)c3ccc(NCCNCC(=O)c4ccc(OS(=O)(=O)c5ccccc5)cc4OS(=O)(=O)c4ccccc4)n3[B-](F)(F)[N+]2=C1C`, the IC50 stood at 93.1 µM with HCT-116, 89.1 µM in the data set with HeLa [2] and 53.3 µM with L02. In addition, the Drug uptake result in data set [1] and in [3] was “Active” each time. Besides, the Activity in the data set with HeLa [4] worked out at 0.24%; with HeLa [5], 2.46%; in the data set with HeLa [6] it was 0.91%; in the data set on HeLa [7], 96.38%.
